In PMC7190985 (Frontiers in Microbiology, 2020):
“Also recorded” adds a separate entry of the source.

What was measured:
VACV-WR-GFP virus = experiment: microbe, parasite or virus in culture; assay type: cell-based; details: Orthopoxvirus vaccinia, HeLa, 24 h; for IC50: read-out: IC50 (50% inhibition of viral spread); for IC90: read-out: IC90 (90% inhibition of viral spread)
VACV WR-Luc virus = assay type: cell-based
VACV WR A4-YFP = assay type: cell-based, vaccinia virus
in vitro = details: human
VACV IHDJ virus = assay type: cell-based, vaccinia virus
VACV WR = assay type: cell-based, vaccinia virus
luciferase = luciferase (Photinus pyralis, UniProt P08659); assay type: biochemical
Sequence of luciferase (P08659 whole entry): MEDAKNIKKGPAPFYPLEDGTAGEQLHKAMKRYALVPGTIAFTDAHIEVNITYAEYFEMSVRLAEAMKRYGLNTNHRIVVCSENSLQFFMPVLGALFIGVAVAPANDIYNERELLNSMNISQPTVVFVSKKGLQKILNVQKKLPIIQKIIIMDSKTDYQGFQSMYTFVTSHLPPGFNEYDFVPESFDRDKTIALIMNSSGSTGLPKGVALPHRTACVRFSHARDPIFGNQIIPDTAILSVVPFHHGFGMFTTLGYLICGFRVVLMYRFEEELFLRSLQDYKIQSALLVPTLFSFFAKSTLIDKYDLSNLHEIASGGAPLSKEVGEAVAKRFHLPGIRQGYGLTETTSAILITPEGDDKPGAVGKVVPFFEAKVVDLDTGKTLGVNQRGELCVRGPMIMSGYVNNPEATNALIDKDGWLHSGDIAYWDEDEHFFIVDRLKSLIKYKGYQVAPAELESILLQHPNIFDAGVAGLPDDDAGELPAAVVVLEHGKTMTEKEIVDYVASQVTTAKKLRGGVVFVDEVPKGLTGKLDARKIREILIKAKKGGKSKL

Structure (SMILES)	IC50 (VACV-WR-GFP virus) [nM]	IC90 (VACV-WR-GFP virus) [nM]	viral entry (luciferase RLU) (VACV WR-Luc virus)	virus-loaded actin tails per cell (VACV WR A4-YFP)	CC50 (in vitro) [nM]	luciferase activity (viral entry) (VACV WR-Luc virus)	MV yield / MV formation (VACV IHDJ virus)	viral plaque size, wild-type virus (VACV WR)	luciferase enzyme activity (RLU) (luciferase)
O=C1CN(C(=O)c2nccs2)C(c2cc(Cl)cc(Cl)c2)c2cc(Cl)ccc2N1 (centres unmarked) [PA24]	1000	1800	did not markedly decrease viral entry; also recorded: reduced viral entry	significant decrease in virus-loaded tails	> 400000				
O=C1CN(C(=O)c2nccs2)C(c2cccc(Cl)c2)c2cc(Br)ccc2N1 (centres unmarked) [PA104]	500	1300	a decrease in viral entry was observed	significant decrease in virus-loaded tails	> 400000	observable reduction in luciferase activity	small reduction in MV yield	maximal inhibition of plaque size	does not impact luciferase enzyme activity
CCC(=O)N1CC(=O)Nc2ccc(Br)cc2C1c1ccccc1 (centres unmarked) [Retro 1]	3000	7200			> 400000				
Cc1ccc(/C=N/c2ccccc2C(=O)Nc2ccccc2)s1 [Retro 2]	2200	5500			> 400000				
O=C(NN1C(=O)[C@@H]2[C@@H]3C=C[C@@H]([C@H]4C[C@@H]34)[C@@H]2C1=O)c1ccc(C(F)(F)F)cc1 [ST-246]	40	100			> 400000				
